Experimental data reported in ChEMBL document CHEMBL1201862, “PubChem BioAssay data set” (2004).
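Five compound concentrations were applied to cells in 96-well plates for 48 hours; endpoints were derived by simple linear interpolation of the resulting dose-response curve. GI50: concentration for 50% inhibition of growth.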 Calls of active or inactive are those of the source. Cut-off read from the data, not from the text of the source: active = GI50 up to about 1.1 µM and inactive = higher.

Experiments:
Assay in all cases: NCI anticancer screen, dose series, 48 h
BT-549 = test system: BT-549
K562 = test system: K562
HCT-116 = test system: HCT-116
OVCAR-5 = test system: OVCAR-5
SR = test system: SR
MCF7 = test system: MCF7
NCI-H522 = test system: NCI-H522
T47D = test system: T47D
CAKI-1 = test system: CAKI-1
NCI/ADR-RES = test system: NCI/ADR-RES
PC-3 = test system: PC-3
U-251 = test system: U-251
SNB-75 = test system: SNB-75
A549 = test system: A549
HOP-62 = test system: HOP-62
SK-OV-3 = test system: SK-OV-3
HL-60 = test system: HL-60
NCI-H460 = test system: NCI-H460
CCRF-CEM = test system: CCRF-CEM
SW-620 = test system: SW-620

Measured: GI50

N#C/C(N)=C(C#N)/N=C/Nc1ccc(N)cc1
inactive: BT-549 > 100 µM | K562 > 100 µM | HCT-116 > 100 µM | OVCAR-5 > 100 µM | SR > 100 µM | MCF7 96.6 µM | NCI-H522 > 100 µM | T47D > 100 µM | CAKI-1 > 100 µM | NCI/ADR-RES > 100 µM | PC-3 > 100 µM | U-251 > 100 µM | SNB-75 > 100 µM | A549 > 100 µM | HOP-62 > 100 µM | SK-OV-3 > 100 µM | HL-60 30.3 µM | NCI-H460 > 100 µM | CCRF-CEM 44.3 µM | SW-620 > 100 µM

COc1cc(CNc2ccc3nc4n(c(=O)c3c2)CCCCC4)cc(OC)c1OC
inactive: BT-549 19.6 µM | K562 > 100 µM | HCT-116 57.5 µM | OVCAR-5 > 100 µM | SR > 100 µM | MCF7 32.2 µM | NCI-H522 39.9 µM | T47D 24.1 µM | CAKI-1 64 µM | NCI/ADR-RES 40.4 µM | PC-3 44.4 µM | U-251 > 100 µM | SNB-75 48.9 µM | A549 51.1 µM | HOP-62 95.1 µM | SK-OV-3 > 100 µM | HL-60 > 100 µM | NCI-H460 39.9 µM | CCRF-CEM 13.6 µM | SW-620 > 100 µM

COC(=O)C1=CO[C@@H](OC2OC(CO)C(O)C(O)C2O)[C@@H]2[C@H](C)[C@@H](O)[C@@H](O)[C@]12O (some centres not stated)
inactive: BT-549 > 100 µM | HCT-116 > 100 µM | OVCAR-5 > 100 µM | SR > 100 µM | MCF7 > 100 µM | NCI-H522 > 100 µM | T47D > 100 µM | CAKI-1 13.4 µM | NCI/ADR-RES > 100 µM | PC-3 > 100 µM | U-251 > 100 µM | SNB-75 33 µM | A549 > 100 µM | HOP-62 > 100 µM | SK-OV-3 > 100 µM | HL-60 > 100 µM | CCRF-CEM > 10 µM | SW-620 > 100 µM

N#CCCN(CCCCN(CCC#N)C(=O)Nc1ccccc1)C(=O)Nc1ccccc1
inactive: BT-549 > 100 µM | K562 > 100 µM | HCT-116 > 100 µM | OVCAR-5 > 100 µM | SR > 100 µM | MCF7 > 100 µM | NCI-H522 > 100 µM | T47D > 100 µM | CAKI-1 > 100 µM | NCI/ADR-RES > 100 µM | PC-3 > 100 µM | U-251 > 100 µM | SNB-75 15.5 µM | A549 > 100 µM | HOP-62 > 100 µM | SK-OV-3 > 100 µM | HL-60 > 100 µM | NCI-H460 > 100 µM | SW-620 > 100 µM

Cc1ccc2ccc(=O)oc2c1
inactive: BT-549 > 100 µM | K562 > 100 µM | HCT-116 > 100 µM | OVCAR-5 > 100 µM | SR > 100 µM | MCF7 > 100 µM | NCI-H522 > 100 µM | T47D 94.6 µM | CAKI-1 > 100 µM | NCI/ADR-RES > 100 µM | PC-3 > 100 µM | U-251 > 100 µM | SNB-75 > 100 µM | A549 > 100 µM | HOP-62 > 100 µM | HL-60 > 100 µM | NCI-H460 > 100 µM | CCRF-CEM > 100 µM | SW-620 > 100 µM

CC(C)(C)c1cc(/C=C2/NC(=O)NC2=O)cc(C(C)(C)C)c1O
inactive: BT-549 13.7 µM | K562 13.2 µM | HCT-116 14.1 µM | OVCAR-5 15.9 µM | SR 12.8 µM | MCF7 13 µM | NCI-H522 12 µM | T47D 2.91 µM | CAKI-1 16.8 µM | NCI/ADR-RES 14.1 µM | PC-3 7.46 µM | U-251 12.8 µM | SNB-75 12.3 µM | HOP-62 17.1 µM | SK-OV-3 16.8 µM | HL-60 10.8 µM | NCI-H460 14.5 µM | CCRF-CEM 11.9 µM | SW-620 18.3 µM

O=C(O)c1nc2cc(Cl)ccc2[nH]c1=O
inactive: BT-549 > 100 µM | K562 > 100 µM | HCT-116 > 100 µM | OVCAR-5 > 100 µM | SR > 100 µM | MCF7 > 100 µM | NCI-H522 > 100 µM | T47D > 100 µM | CAKI-1 > 100 µM | NCI/ADR-RES > 100 µM | PC-3 > 100 µM | U-251 > 100 µM | A549 > 100 µM | HOP-62 > 100 µM | SK-OV-3 > 100 µM | HL-60 > 100 µM | NCI-H460 > 100 µM | CCRF-CEM > 100 µM | SW-620 > 100 µM

COc1ccc(-n2c(C)nc3ccc(NC4OC(COC(C)=O)C(OC(C)=O)C(OC(C)=O)C4OC(C)=O)cc3c2=O)cc1 (configuration not stated)
inactive: BT-549 > 100 µM | K562 36.7 µM | HCT-116 21.8 µM | OVCAR-5 > 100 µM | SR 73.3 µM | MCF7 45.9 µM | NCI-H522 21.8 µM | T47D > 100 µM | CAKI-1 19.7 µM | NCI/ADR-RES > 100 µM | PC-3 > 100 µM | U-251 > 100 µM | SNB-75 > 100 µM | HOP-62 > 100 µM | HL-60 20.3 µM | NCI-H460 > 100 µM | SW-620 39.1 µM

Cc1ccc(OCC2OC(n3cnc4c(Br)nc(Br)nc43)CC2Oc2ccc(C)cc2)cc1 (configuration not stated)
inactive: BT-549 18.6 µM | K562 2.57 µM | HCT-116 1.89 µM | OVCAR-5 12.3 µM | SR 1.96 µM | MCF7 4.32 µM | NCI-H522 1.86 µM | T47D 10.8 µM | CAKI-1 1.97 µM | NCI/ADR-RES 9.59 µM | PC-3 2.94 µM | U-251 2.24 µM | SNB-75 3.09 µM | A549 12.6 µM | HOP-62 3.61 µM | SK-OV-3 14.5 µM | HL-60 1.91 µM | CCRF-CEM 2.7 µM | SW-620 2.56 µM

COc1ccc(/C=C/C(=O)c2cc(CN(C)C)c(O)c(CN(C)C)c2)cc1
inactive: BT-549 27.9 µM | K562 26.7 µM | HCT-116 24.2 µM | OVCAR-5 > 100 µM | SR 31.9 µM | MCF7 36.6 µM | NCI-H522 20.5 µM | T47D 19.6 µM | CAKI-1 47.5 µM | NCI/ADR-RES 33.1 µM | PC-3 23.9 µM | U-251 48.1 µM | SNB-75 19 µM | A549 27.6 µM | HOP-62 21.8 µM | HL-60 22.9 µM | NCI-H460 18.7 µM | CCRF-CEM 35.2 µM | SW-620 36.9 µM

N#CCc1nc(-c2ccccc2)n[nH]1
inactive: BT-549 > 100 µM | K562 76.6 µM | HCT-116 > 100 µM | OVCAR-5 > 100 µM | SR > 100 µM | MCF7 > 100 µM | NCI-H522 > 100 µM | T47D > 100 µM | CAKI-1 > 100 µM | NCI/ADR-RES > 100 µM | PC-3 > 100 µM | SNB-75 > 100 µM | A549 > 100 µM | HOP-62 > 100 µM | SK-OV-3 > 100 µM | HL-60 > 100 µM | NCI-H460 > 100 µM | CCRF-CEM > 100 µM | SW-620 > 100 µM

CN(C(=O)Cc1ccccc1)n1cn[n+](CC(=O)OC(C)(C)C)c1
inactive: BT-549 > 10 µM | K562 > 10 µM | HCT-116 > 10 µM | OVCAR-5 > 10 µM | SR > 10 µM | MCF7 > 10 µM | NCI-H522 > 10 µM | T47D > 10 µM | CAKI-1 > 10 µM | NCI/ADR-RES > 10 µM | PC-3 > 10 µM | U-251 > 10 µM | A549 > 10 µM | HOP-62 > 10 µM | SK-OV-3 > 10 µM | NCI-H460 > 10 µM | CCRF-CEM > 10 µM | SW-620 > 10 µM

CN1CCN(C(=O)CCC(=O)Nc2cc3c(c4ccccc24)-c2ccc4ccccc4c2C3)CC1
inactive: BT-549 1.35 µM | K562 1.91 µM | HCT-116 1.55 µM | OVCAR-5 1.67 µM | SR 1.79 µM | MCF7 1.51 µM | NCI-H522 1.63 µM | T47D 1.7 µM | CAKI-1 1.53 µM | NCI/ADR-RES 2.21 µM | PC-3 1.64 µM | U-251 2.04 µM | A549 1.96 µM | HOP-62 1.69 µM | SK-OV-3 1.6 µM | HL-60 2 µM | NCI-H460 1.82 µM | CCRF-CEM 2.08 µM

COc1ccc(-c2ncnc(-c3ccc(OC)c(OC)c3)n2)cc1OC
inactive: BT-549 > 100 µM | K562 > 100 µM | HCT-116 > 100 µM | OVCAR-5 > 100 µM | SR 45.2 µM | MCF7 > 100 µM | NCI-H522 > 100 µM | T47D > 100 µM | CAKI-1 > 100 µM | NCI/ADR-RES > 100 µM | PC-3 > 100 µM | U-251 > 100 µM | SNB-75 > 100 µM | A549 > 100 µM | HOP-62 > 100 µM | SK-OV-3 > 100 µM | HL-60 > 100 µM | CCRF-CEM > 100 µM | SW-620 > 100 µM

Cc1c(/N=N/c2ccccc2)c(C)n(C2OC(CO)C(O)C(O)C2O)c(=S)c1C#N (configuration not stated)
inactive: BT-549 19.9 µM | K562 24.4 µM | HCT-116 21.1 µM | OVCAR-5 15.1 µM | SR 21.4 µM | MCF7 22.8 µM | T47D 39.2 µM | CAKI-1 40.2 µM | NCI/ADR-RES 42.4 µM | PC-3 24 µM | U-251 23.2 µM | SNB-75 42.2 µM | A549 35.5 µM | HOP-62 25.5 µM | SK-OV-3 34 µM | HL-60 34.1 µM | NCI-H460 31.3 µM | CCRF-CEM 22.5 µM | SW-620 29.4 µM
